Measurements published in patent US20100041089A1, “IMPROVED METHOD FOR DETECTING CHEMICAL […]” (priority 2006, published 2010).

Test system: yeast genes (expressed mRNA)
Assay: DNA chip measurement of expressed mRNA of yeast genes after culture with a toxic chemical substance
Format: cell-based, Saccharomyces cerevisiae S288C
Conditions: for level of expressed mRNA in the presence of chemical substance / level in the absence of chemical substance: cultured two hours with the chemical substance; for The level of expressed mRNA in the presence of chemical substance/The level of expressed mRNA in the absence of chemical substance: cultured two hours with substance
Procedure: Yeast (Saccharomyces cerevisiae S288C (a SUC2mal mel gap2 CUP1)) were cultured at 25° C. on YPD medium (yeast extract 1%, polypeptone 2%, glucose 2%). One of toxic chemical substances was added to the cell at logarithmic growth phase, and the cell was further cultured for two hours. Cell was cultured without any chemical substance in the same condition, and was used as a control. Concentrations of the chemical substances were defined to inhibit the growth of the yeast but not lead to death.
After the completion of cultivation, the culture was centrifuged to collect the cells. To the cells, sodium acetate buffer (50 mM sodium acetate, 10 mM EDTA, 1% SDS) was added, and the mixture was shaken at 65° C. for five minutes, followed by returning to room temperature, and obtaining the supernatant, which procedure was repeated two times. To the supernatant, ½ amount of a solution of phenol/chloroform (1:1) was added, and the mixture was centrifuged to give a supernatant, an equal amount of chloroform was added, and the mixture was centrifuged to give a supernatant. To the supernatant, an equal amount of isopropanol containing 0.3 M sodium acetate was added, and the mixture was allowed to stand at room temperature for 30 minutes, after which the mixture was centrifuged to give sediment of the whole RNAs. Seventy % ethanol was added to the sediment, and the mixture was again centrifuged to give sediment, which was then dried and dissolved in water. mRNA was isolated from the whole RNAs as followings. In view of the fact that a poly A chain is attached to the 3′ terminus of mRNA, a polynucleotide having a poly T structure which was immobilized on the surface of latex beads was used to trap the mRNA, and then the mRNA was washed and eluted with spine column (Oligotex-dT30<Super>mRNA Purification Kit, Takara). Reverse transcription of the mRNA was conducted with a reverse transcriptase (Super Script II Reverse Transcriptase; catalogue No. 18064-014, GibcoBRL) using fluorescence-labeled nucleotides to give cDNAs that were introduced with Cy3-dUTP or Cy5-dUTP during the reverse transcription.
The labeled cDNAs were dissolved in TE buffer (10 mM Tris-HCl/1 mM EDTA, pH 8.0), and the solution was dropped on the DNA chip containing the whole genes of yeast (DNA Chip Research Inc. Japan) so that the cDNAs were hybridized on the DNA chip at 65° C. for over 12 hours. The fluoresces intensity of the DNA chip was read with a scanner, and the ratio relative to the fluorescence intensity resulting from the absence of chemical substance was estimated as the following, which is shown in Tables 1 to 9.
In the Tables, “Intensity” indicated in the rightmost column is a value of the level of expressed mRNA of each gene in control cells as divided by the average level of the expressions of the whole genes. A gene of which mRNA level is lower in control, and is higher in cases of addition of chemical substance, is especially useful in the detection of toxic substances.
Here, when a ratio of an amount of mRNA expressed in the presence of the chemical substance to an amount of mRNA expressed in the absence of the chemical substance is two or more, then it is considered significant.

Na2As [(1)]
level of expressed mRNA in the presence of chemical substance / level in the absence of chemical substance (yeast gene YDR133C): 0.9 | level of expressed mRNA in the presence of chemical substance / level in the absence of chemical substance (yeast gene YDR250C): 1.9 | level of expressed mRNA in the presence of chemical substance / level in the absence of chemical substance (yeast gene YDR278C): 1.0 | level of expressed mRNA in the presence of chemical substance / level in the absence of chemical substance (yeast gene YDR281C): 2.1 | The level of expressed mRNA in the presence of chemical substance/The level of expressed mRNA in the absence of chemical substance (yeast gene YDR330W): 0.8 | level of expressed mRNA in the presence of chemical substance / level in the absence of chemical substance (yeast gene YDR366C): 0.9 | The level of expressed mRNA in the presence of chemical substance/The level of expressed mRNA in the absence of chemical substance (yeast gene YDR411C): 0.9 | The level of expressed mRNA in the presence of chemical substance/The level of expressed mRNA in the absence of chemical substance (yeast gene YDR511W): 1.3 | The level of expressed mRNA in the presence of chemical substance/The level of expressed mRNA in the absence of chemical substance (yeast gene YDR545W): 0.6 | The level of expressed mRNA in the presence of chemical substance/The level of expressed mRNA in the absence of chemical substance (yeast gene YEL001C): 1.0 | The level of expressed mRNA in the presence of chemical substance/The level of expressed mRNA in the absence of chemical substance (yeast gene YER004W): 1.0 | The level of expressed mRNA in the presence of chemical substance/The level of expressed mRNA in the absence of chemical substance (yeast gene YER035W): 1.4 | The level of expressed mRNA in the presence of chemical substance/The level of expressed mRNA in the absence of chemical substance (yeast gene YER079W): 1.1 | The level of expressed mRNA in the presence of chemical substance/The level of expressed mRNA in the absence of chemical substance (yeast gene YER106W): 1.3 | The level of expressed mRNA in the presence of chemical substance/The level of expressed mRNA in the absence of chemical substance (yeast gene YER158C): 1.2 | The level of expressed mRNA in the presence of chemical substance/The level of expressed mRNA in the absence of chemical substance (yeast gene YER163C): 1.1 | The level of expressed mRNA in the presence of chemical substance/The level of expressed mRNA in the absence of chemical substance (yeast gene YER175C): 0.9 | The level of expressed mRNA in the presence of chemical substance/The level of expressed mRNA in the absence of chemical substance (yeast gene YFL006W): 0.8 | The level of expressed mRNA in the presence of chemical substance/The level of expressed mRNA in the absence of chemical substance (yeast gene YFL010C): 1.0 | The level of expressed mRNA in the presence of chemical substance/The level of expressed mRNA in the absence of chemical substance (yeast gene YFL024C): 1.0 | The level of expressed mRNA in the presence of chemical substance/The level of expressed mRNA in the absence of chemical substance (yeast gene YFL032W): 0.4 | level of expressed mRNA in the presence of chemical substance / level in the absence of chemical substance (yeast gene YFR026C): 0.9 | The level of expressed mRNA in the presence of chemical substance/The level of expressed mRNA in the absence of chemical substance (yeast gene YGL037C): 1.5 | The level of expressed mRNA in the presence of chemical substance/The level of expressed mRNA in the absence of chemical substance (yeast gene YGL047W): 1.0 | The level of expressed mRNA in the presence of chemical substance/The level of expressed mRNA in the absence of chemical substance (yeast gene YGL053W): 1.5 | level of expressed mRNA in the presence of chemical substance / level in the absence of chemical substance (yeast gene YGL088W): 0.9 | The level of expressed mRNA in the presence of chemical substance/The level of expressed mRNA in the absence of chemical substance (yeast gene YGL121C): 2.6 | The level of expressed mRNA in the presence of chemical substance/The level of expressed mRNA in the absence of chemical substance (yeast gene YGL199C): 1.1 | level of expressed mRNA in the presence of chemical substance / level in the absence of chemical substance (yeast gene YGR038W): 0.9 | The level of expressed mRNA in the presence of chemical substance/The level of expressed mRNA in the absence of chemical substance (yeast gene YGR101W): 1.0 | The level of expressed mRNA in the presence of chemical substance/The level of expressed mRNA in the absence of chemical substance (yeast gene YGR110W): 1.6 | The level of expressed mRNA in the presence of chemical substance/The level of expressed mRNA in the absence of chemical substance (yeast gene YGR130C): 0.9 | level of expressed mRNA in the presence of chemical substance / level in the absence of chemical substance (yeast gene YGR139W): 1.3 | The level of expressed mRNA in the presence of chemical substance/The level of expressed mRNA in the absence of chemical substance (yeast gene YGR154C): 1.8 | The level of expressed mRNA in the presence of chemical substance/The level of expressed mRNA in the absence of chemical substance (yeast gene YGR221C): 0.9 | level of expressed mRNA in the presence of chemical substance / level in the absence of chemical substance (yeast gene YGR243W): 1.4 | level of expressed mRNA in the presence of chemical substance / level in the absence of chemical substance (yeast gene YGR293C): 0.5 | level of expressed mRNA in the presence of chemical substance / level in the absence of chemical substance (yeast gene YHL006C): 0.7 | level of expressed mRNA in the presence of chemical substance / level in the absence of chemical substance (yeast gene YHR095W): 1.1 | level of expressed mRNA in the presence of chemical substance / level in the absence of chemical substance (yeast gene YHR105W): 0.9 | The level of expressed mRNA in the presence of chemical substance/The level of expressed mRNA in the absence of chemical substance (yeast gene YHR138C): 2.8 | level of expressed mRNA in the presence of chemical substance / level in the absence of chemical substance (yeast gene YHR181W): 0.9 | The level of expressed mRNA in the presence of chemical substance/The level of expressed mRNA in the absence of chemical substance (yeast gene YHR199C): 1.9 | The level of expressed mRNA in the presence of chemical substance/The level of expressed mRNA in the absence of chemical substance (yeast gene YIL023C): 1.1 | The level of expressed mRNA in the presence of chemical substance/The level of expressed mRNA in the absence of chemical substance (yeast gene YIL041W): 1.0 | The level of expressed mRNA in the presence of chemical substance/The level of expressed mRNA in the absence of chemical substance (yeast gene YIL087C): 1.3 | level of expressed mRNA in the presence of chemical substance / level in the absence of chemical substance (yeast gene YIL127C): 1.1 | level of expressed mRNA in the presence of chemical substance / level in the absence of chemical substance (yeast gene YJL017W): 1.1 | level of expressed mRNA in the presence of chemical substance / level in the absence of chemical substance (yeast gene YJL037W): 1.8 | The level of expressed mRNA in the presence of chemical substance/The level of expressed mRNA in the absence of chemical substance (yeast gene YJL057C): 1.5 | The level of expressed mRNA in the presence of chemical substance/The level of expressed mRNA in the absence of chemical substance (yeast gene YJL066C): 0.9 | The level of expressed mRNA in the presence of chemical substance/The level of expressed mRNA in the absence of chemical substance (yeast gene YJL082W): 1.4 | level of expressed mRNA in the presence of chemical substance / level in the absence of chemical substance (yeast gene YJL097W): 1.0
